The Ki is a measure of affinity in units of concentration, obtained from inhibition or displacement.

For assay [1], the target named is human GABAA α5β2γ1 receptor (Homo sapiens (Human), UniProt P31644+Q8N1C3). Nature of the assay: Radioligand binding assay, competition for [3H]RO7239181, γ1-containing GABAA subtypes. The protocol: The affinity of compounds at GABAA γ1 subunit-containing receptors was measured by competition for [^3H]RO7239181 (67.3 Ci/mmol; Roche) binding to membranes from HEK293F cells (ThermoFisher R79007) expressing human (transiently transfected) receptors of composition α5β2γ1, α2β2γ1, α1β2γ1. For better protein expression of the α2 subunit-containing receptors, the 28 amino acid long signal peptide (Met1 to Ala28) of the human GABAA α2 subunit was substituted by the 31 amino acid long signal peptide (Met1 to Ser31) of human GABAA α5 subunit.
(§1) Harvested pellets from HEK293F cells expressing the different GABAA receptor subtypes were resuspended in Mannitol Buffer pH 7.2-7.4 (Mannitol 0.29 M, Triethylamine 10 mM, Acetic acid 10 mM, EDTA 1 mM plus protease inhibitors (20 tablets Complete, Roche Diagnostics Cat. No. 05 056 489 001 per liter)), washed two times and then resuspended at 1:10 to 1:15 dilution in the same buffer. Cell disruption was performed by stirring the suspension in a Parr vessel #4637 at 435 psi for 15 minutes, and then the suspensions were centrifuged at 1000×g for 15 minutes at 4° C. (Beckman Avanti J-HC; rotor JS-4.2). The supernatant (S1) was transferred in a 21 Schott flask and the pellet (P1) was resuspended with Mannitol Buffer up to 175 ml. The resuspended pellet was transferred into a 250 ml Corning centrifugal beaker and centrifuged at 1500×g for 10 minutes at 4° C. (Beckman Avanti J-HC; rotor JS-4.2). The supernatant (S1) was then transferred in the 21 Schott flask and the pellet was discarded. The supernatants (S1) were centrifuged in 500 ml Beckman polypropylene centrifugal beaker at 15'000×g for 30 minutes at 4° C. (Beckman Avanti J-20 XP; rotor JLA-10.500). The pellet (P2) was resuspended with Mannitol Buffer 1:1 and frozen at −80° C. The supernatant (S2) was centrifuged in 100 ml Beckman polypropylene centrifugal tubes at 48000×g for 50 minutes at 4° C. (Beckman Avanti J-20 XP; rotor JA-18). The supernatant (S3) was discarded and the pellet (P3) was resuspended with 1:1 Mannitol Buffer. The P2 and P3 protein concentration was determined with the BIORAD Standard assay method with bovine serum albumin as standard and measured on the NANO-Drop 1000. The membrane suspension was aliquots (500 μl per tube) and stored at −80° C. until required.
(§2) Membrane homogenates were resuspended and polytronised (Polytron PT1200E Kinematica AG) in Potassium Phosphate 10 mM, KCl 100 mM binding buffer at pH 7.4 to a final assay concentration determined with a previous experiment.
Radioligand binding assays were carried out in a volume of 200 μL (96-well plates) which contained 100 μL of cell membranes, [^3H]RO7239181 at a concentration of 1.5 nM (α5β2γ1) or 20-30 nM (α1β2γ1, α2β2γ1) and the test compound in the range of [0.3-10000]×10^−9 M. Nonspecific binding was defined by 10×10^−6 (α5β2γ1) and 30×10^−6 M RO7239181 and typically represented less than 5% (α5β2γ1) and less than 20% (α1β2γ1, α2β2γ1) of the total binding. Assays were incubated to equilibrium for 1 hour at 4° C. and then, membranes were filtered onto unifilter (96-well white microplate with bonded GF/C filters preincubated 20-50 minutes in 0.3% Polyethylenimine) with a Filtermate 196 harvester (Packard BioScience) and washed 4 times with cold Potassium Phosphate 10 mM pH 7.4, KCl 100 mM binding buffer. After anhydrousing, filter-retained radioactivity was detected by liquid scintillation counting. Ki values were calculated using Excel-Fit (Microsoft) and are the means of two determinations.

The target in assay [2] is human GABAA α2β2γ1 receptor (Homo sapiens (Human), UniProt P47869+Q8N1C3). The assay is described as above. How it is done: The affinity of compounds at GABAA γ1 subunit-containing receptors was measured by competition for [^3H]RO7239181 (67.3 Ci/mmol; Roche) binding to membranes from HEK293F cells (ThermoFisher R79007) expressing human (transiently transfected) receptors of composition α5β2γ1, α2β2γ1, α1β2γ1.
as §1, §2
Assays were incubated to equilibrium for 1 hour at 4° C. and then, membranes were filtered onto unifilter (96-well white microplate with bonded GF/C filters preincubated 20-50 minutes in 0.3% Polyethylenimine) with a Filtermate 196 harvester (Packard BioScience) and washed 4 times with cold Potassium Phosphate 10 mM pH 7.4, KCl 100 mM binding buffer. After anhydrousing, filter-retained radioactivity was detected by liquid scintillation counting. Ki values were calculated using Excel-Fit (Microsoft) and are the means of two determinations.

For assay [3], the target named is human GABAA α1β3γ2 receptor (Homo sapiens (Human), UniProt P14867+P18507). Kind of assay: Radioligand binding assay, competition for [3H]Flumazenil, γ2-containing GABAA subtypes. The note with it: for γ2/γ1 Selectivity Ratio: Ki α1β3γ2 (nM)/Ki α2β2γ1 (nM); for LogSel: Log[Ki α1β3γ2 (nM)/Ki α2β2γ1 (nM)]. The protocol:
The affinity of compounds at GABAA γ2 subunit-containing receptors was measured by competition for [^3H]Flumazenil (81.1 Ci/mmol; Roche) binding to HEK293F cells expressing human (transiently transfected) receptors of composition α1β3γ2.
Harvested pellets from HEK293F cells expressing the different GABAA γ2 receptor subtypes were resuspended in Mannitol Buffer pH 7,2-7,4 and processed as described above for the cells expressing the GABAA γ1 subunit-containing receptors.
Assays were incubated to equilibrium for 1 hour at 4° C. and harvested onto GF/C uni-filters (Packard) by filtration using a Packard harvester and washing with ice-cold wash buffer (50 mM Tris; pH 7.5). After anhydrousing, filter-retained radioactivity was detected by liquid scintillation counting. Ki values were calculated using Excel-Fit (Microsoft) and are the means of two determinations.

A further assay addresses h-GABA-A α2β2γ1 (Homo sapiens (Human), UniProt P47869+Q8N1C3). Kind of assay: Two-electrode voltage clamp electrophysiology in Xenopus oocytes expressing GABAA receptors. The assay is classed as cell-based. The note with it: α2β2γ1 GABAA receptor subtype expressing oocytes, reference PAMs. How it is done: Xenopus Oocytes Preparation Xenopus laevis oocytes at maturation stages V-VI were used for the expression of cloned mRNA encoding GABAA receptor subunits. Oocytes ready for RNA micro-injection were bought from Ecocyte, Castrop-Rauxel, Germany and stored in modified Barth's medium (composition in mM: NaCl 88, KCl 1, NaHCO3 2.4, HEPES 10, MgSO4 0.82, CaNO3 0.33, CaCl2 0.33, pH=7.5) at 20° C. until the experiment.
Oocytes were plated in 96-well plates for microinjection using the Roboinject automated instrument (MultiChannelSystems, Reutlingen, Germany). Approximately 50 nL of an aqueous solution containing the RNA transcripts for the subunits of the desired GABAA receptor subtype was injected into each oocyte. […] Oocytes were kept in modified Barth's medium (composition in mM: NaCl 88, KCl 1, NaHCO3 […], HEPES 10, MgSO4 0.82, CaNO3 0.33, CaCl2 0.33, pH=7.5) at 20° C. until the experiment.
Electrophysiological experiments were performed using the Roboocyte instrument (MultiChannelSystems, Reutlingen, Germany) on days 3 to 5 after the micro-injection of mRNA. During the experiment the oocytes were constantly superfused by a solution containing (in mM) NaCl 90, KCl 1, HEPES 5, MgCl2 1, CaCl2 1 (pH 7.4). Oocytes were impaled by two glass microelectrodes (resistance: 0.5-0.8 MQ) which were filled with a solution containing KCl 1M+K-acetate 1.5 M and voltage-clamped to −80 mV. The recordings were performed at room temperature using the Roboocyte two-electrode voltage clamp system (Multichannelsystem). After an initial equilibration period of 1.5 min GABA was added for 1.5 min at a concentration evoking approximately 20% of a maximal current response (EC20). After another rest interval of 2.5 min GABA was again added evoking a response of similar amplitude and shape. […] Current traces were recorded at a digitization rate of 10 Hz during and shortly before and after the GABA application.
Each compound and concentration was tested on at least 3 oocytes. Different oocytes were used for different compound concentrations.
For the analysis, the digitized current traces of the first and second GABA response were superimposed and, if necessary, rescaled to equal maximal amplitudes. The ratio between the two responses during the time interval of test compound application was calculated point by point. The extremum of the resulting “ratio trace” was taken as the efficacy (“Fold increase”) of the compound expressed as “% modulation of GABA EC20” (100*(Fold increase−1)).
(In two-electrode clamp one electrode senses voltage and the other passes current.)

Where [4] appears, read: Ki h-GABAA α2β2γ1, membranes of HEK293F cells, [3H]RO7239181 20-30 nM, Table 1.
Where [5] appears, read: Ki h-GABAA α2β2γ1, membranes of HEK293F cells, [3H]RO7239181 20-30 nM, Table 2.
Where [6] appears, read: HEK293F cells, [3H]Flumazenil 1 nM, Table 1, read-out: Ki h-GABAA α1β3γ2.

Read-outs that look alike come from different tables or passages of the source.

Turning to `C[C@@H]1N=C(c2c(F)cccc2F)c2c(sc3c2CCCCC3)-n2c1n[nH]c2=O` [Example 6, (7S)-9-(2,6-difluorophenyl)-7-methyl-18-thia-2,4,5,8-tetrazatetracyclo[8.8.0.02,6.011,17]octadeca-1(10),5,8,11(17)-tetraen-3-one], the Ki in assay [1] came to 3.69 nM; in assay [2] (setting [4]), 37.3 nM; in assay [2] (setting [5]) it was 37.3 nM; in assay [3] it was 2440 nM. Also, the “γ2/γ1 Selectivity Ratio” value in assay [3] (Table 1) stood at 65.3. Further, the LogSel in assay [3] (Table 1) worked out at 1.82.

Compound `Cc1nnc2n1-c1ccc(Cl)cc1C(c1ccccc1Cl)=NC2` [Triazolam, reference compound] returned a LogSel in assay [3] (Table 3) of −1.5. In addition, the “potentiation of the GABA-induced current” value at h-GABA-A α2β2γ1 is around 60%.

As for `CN1C(=O)CN=C(c2ccccc2F)c2cc([N+](=O)[O-])ccc21` [Flunitrazepam, reference compound], the “potentiation of the GABA-induced current” value at h-GABA-A α2β2γ1 was around 60%.

With `C[C@@H]1N=C(c2c(F)cccc2F)c2c(sc3c2COCCO3)-n2nc(C(=O)NCC3(O)CC3)nc21` [Example 60, (7S)-9-(2,6-difluorophenyl)-N-[(1-hydroxycyclopropyl)methyl]-7-methyl-13,16-dioxa-18-thia-2,3,5,8-tetrazatetracyclo[8.8.0.02,6.011,17]octadeca-1(10),3,5,8,11(17)-pentaene-4-carboxamide], the Ki in assay [1] was determined as 2.86 nM; in assay [2] (setting [4]) it was 23.4 nM; in assay [2] (setting [5]), 23.4 nM; in assay [3] (setting [6]), 3690 nM. Also, the “γ2/γ1 Selectivity Ratio” value in assay [3] (Table 1) stood at 157.4. The LogSel in assay [3] (Table 1) is reported as 2.20.

On to `Cc1nnc2n1-c1sc3c(c1C(c1c(F)cccc1F)=N[C@H]2C)CCCC3` [RE-B, (7S)-9-(2,6-difluorophenyl)-3,7-dimethyl-17-thia-2,4,5,8-tetrazatetracyclo[8.7.0.02,6.011,16]heptadeca-1(10),3,5,8,11(16)-pentaene, reference compound], for which the Ki amounted to 57.7 nM in assay [2] (Ki h-GABAA α2β2γ1, Table 3, reference compounds and examples); 21.6 nM in assay [3]. Moreover, the “γ2/γ1 Selectivity Ratio” value in assay [3] (Table 3) is on record as 2.68.

In the case of `C[C@@H]1N=C(c2c(F)cccc2F)c2c(sc3c2COCCC3)-n2nc(C(=O)NCC(C)(C)O)nc21` [Example 71, (7S)-9-(2,6-difluorophenyl)-N-(2-hydroxy-2-methyl-propyl)-7-methyl-13-oxa-18-thia-2,3,5,8-tetrazatetracyclo[8.8.0.02,6.011,17]octadeca-1(10),3,5,8,11(17)-pentaene-4-carboxamide], the Ki in assay [1] was found to be 7.3 nM; in assay [2] (setting [4]), 80 nM; in assay [2] (setting [5]), 80 nM; in assay [3] (setting [6]), 3920 nM. For the same compound, the “γ2/γ1 Selectivity Ratio” value in assay [3] (Table 1) is given as 49.0. For the same compound, the LogSel in assay [3] (Table 1) is 1.69.

Consider `Clc1ccc2c(c1)C(c1ccccc1)=NCc1nncn1-2` [Estazolam, reference compound], for which, in assay [3] (Table 3), the “γ2/γ1 Selectivity Ratio” value is on record as 0.0089 and the LogSel was −2.0.

As to `Cc1nnc2n1-c1sc3c(c1C(c1c(F)cccc1F)=N[C@H]2C)COCC[C@H]3F` [Example 54, (7S,16R)-9-(2,6-difluorophenyl)-16-fluoro-3,7-dimethyl-13-oxa-18-thia-2,4,5,8-tetrazatetracyclo[8.8.0.02,6.011,17]octadeca-1(10),3,5,8,11(17)-pentaene], the Ki in assay [1] stood at 9.1 nM; in assay [2] (setting [4]) it was 35.8 nM; in assay [2] (setting [5]), 35.8 nM; in assay [3], 5080 nM. Besides, the “γ2/γ1 Selectivity Ratio” value in assay [3] (Table 1) came out at 141.9.

`Cc1nnc2n1-c1ccc(Cl)cc1C(c1ccccc1)=NC2` [Alprazolam, reference compound] returned a LogSel in assay [3] (Table 3) of −2.3.

For `Cc1ncc2n1-c1ccc(Cl)cc1C(c1ccccc1F)=NC2` [Midazolam, reference compound], the LogSel in assay [3] (Table 3) is reported as −2.2. Besides, the “potentiation of the GABA-induced current” value on h-GABA-A α2β2γ1 is listed as around 60%.

(Values after patent US20240294543A1, “CYCLOHEPTA-THIENO-DIAZEPINE DERIVATIVES AS GABA A GAMMA1 PAM” (Hoffmann-La Roche Inc., priority 2021, published 2024).)
